Measurements as given in patent US20260295053A1, “COMPOUNDS FOR DEGRADATION AND INHIBITION OF KRAS (G12D) PROTEIN” (Shenzhen Ionova Life Science Co., Ltd., priority 2023, published 2026).

Biological target: T1, KRAS (G12D) (Homo sapiens, UniProt P01116, G12D)
T1 construct: in-cell western with KRAS G12D antibody after 24 h
Experiment: KRAS (G12D) cellular degradation assay in AsPC-1 cells
Format: cell-based
Conditions: 24 hours, antibody fluorescence (Odyssey CLX), DC50 half-maximal degradation concentration
Protocol: ASPC-1 and PK-59 cellular assays ASPC-1 (ATCC cat. CRL-1682) and PK-59 (Nanjing Cobioer, Cat. No. CBP61184) were used in KRAS cellular degradation, pERK inhibition and proliferation assays. The two cell lines were maintained following vendor's instructions. For monitoring KRAS (G12D) cellular degradation and pERK biomarker inhibition, cells were seeded into a 96-well plate with 22,000 and 16,000 cells/well for assays in ASPC-1 and PK-59, respectively. Cells were incubated at 37° C. with 5% CO2 and cell density was monitored until ^~90% confluency was reached. Compounds were serially diluted at a 1:3 ratio and dispensed into each well at final concentrations ranging from […] to 1.5 nM. After incubation for 24 hours, the culture media were removed and the cells were subjected to fixation, permeabilization and blocking (Intercept blocking buffer, Li-cor). For KRAS (G12D) degradation, the cells were treated with primary antibody (KRAS G12D antibody, Cell Signaling Technologies, Cat. No. CST14429) and for β-actin (β-actin mAb, Beyotime, Cat. No. AF-5001), and followed by secondary antibodies, Anti-rabbit IgG (H+L) (DyLight™ 800 4×PEG Conjugate) or IRDye® 680RD Goat anti-Mouse IgG. For pERK inhibition assay, cells were treated with primary antibodies for pERK (Phospho-p44/42 MAPK (Erk1/2) (Thr202/Tyr204) (D13.14.4E) XP® Rabbit mAb, Cell Signaling Technologies, Cat. No. CST-4370) and β-actin (β-actin mAb, Beyotime, Cat. No. AF-5001), and followed by secondary antibodies, Anti-rabbit IgG (H+L) (DyLight™ 800 4×PEG Conjugate) or IRDye® 680RD Goat anti-Mouse IgG. Fluorescence signals were read on Odyssey CLX instrument. For cell proliferation assays, cells were seeded into a 96-well plate at 3,500 and 800 cells/well for assays in ASPC-1 and PK-59, respectively. Cells were incubated at 37° C. with 5% CO2 for overnight. Compounds were serially diluted at a 1:3 ratio and dispensed into each well at final concentrations ranging from […] to 1.5 nM. After incubation for 6 days, cell viability reagent (CellTiter Glo, Promega, Cat. No. G7573) was added to each well and luminescence was recorded on Molecular Devices Spectramax iD3 instrument. IC50, half-maximal inhibitory concentration for pERK inhibition or cell proliferation, and DC50, half-maximal degradation concentration in KRAS (G12D) cellular degradation were determined by fitting the corresponding dose response curves using GraphPad Prism software.
Wherein “A” means the value <10 nM, “B” means 10 nM<the value <100 nM, “C” means 100 nM<the value <1000 nM, and “D” means the value >1000 nM, in which, the value means the value of DC50 or IC50. NT means not tested.

T1 sequence (P01116 1-188 isoform P01116-2 G12D): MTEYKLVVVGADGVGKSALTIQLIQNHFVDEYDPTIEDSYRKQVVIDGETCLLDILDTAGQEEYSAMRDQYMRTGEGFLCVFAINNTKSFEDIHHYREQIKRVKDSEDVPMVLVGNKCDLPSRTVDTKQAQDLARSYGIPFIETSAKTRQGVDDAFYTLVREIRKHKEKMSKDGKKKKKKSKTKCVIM

A DC50 of under 10 nM was found for `CCn1nccc1-c1ccc([C@H](CO)NC(=O)[C@@H]2C[C@@H](O)CN2C(=O)[C@H](C(C)C)n2cc(-c3ccc(COc4c(-c5c(C)c(F)c(F)c6[nH]ncc56)c(C5CC5)cc5c(N6C[C@@H]7C[C@H]6CN7)nc(OC6CCC7(CC6)COC7)nc45)cc3)nn2)cc1` [Example 110, (2S,4R)-1-((2S)-2-(4-(4-(((2-((2-oxaspiro[3.5]nonan-7-yl)oxy)-4-((1S,4S)-2,5-diazabicyclo[2.2.1]heptan-2-yl)-6-cyclopropyl-7-(6,7-difluoro-5-methyl-1H-indazol-4-yl)quinazolin-8-yl)oxy)methyl)phenyl)-1H-1,2,3-triazol-1-yl)-3-methylbutanoyl)-N—((R)-1-(4-(1-ethyl-1H-pyrazol-5-yl)phenyl)-2-hydroxyethyl)-4-hydroxypyrrolidine-2-carboxamide] in this work.

A DC50 of 10 to 100 nM was found for `CO[C@@H](C)COc1nc(N2C[C@@H]3C[C@H]2CN3)c2cc(C3CC3)c(-c3c(C)c(F)cc4[nH]ncc34)c(OCc3ccc(-c4cn([C@H](C(=O)N5C[C@H](O)C[C@H]5C(=O)N[C@H](C#Cc5cccc6sc(C)nc56)CO)C(C)C)nn4)cc3)c2n1` [Example 117, (2S,4R)-1-((2S)-2-(4-(4-(((4-((1S,4S)-2,5-diazabicyclo[2.2.1]heptan-2-yl)-6-cyclopropyl-7-(6-fluoro-5-methyl-1H-indazol-4-yl)-2-((S)-2-methoxypropoxy)quinazolin-8-yl)oxy)methyl)phenyl)-1H-1,2,3-triazol-1-yl)-3-methylbutanoyl)-4-hydroxy-N—((R)-1-hydroxy-4-(2-methylbenzo[d]thiazol-4-yl)but-3-yn-2-yl)pyrrolidine-2-carboxamide] in this work.

A DC50 of 10 to 100 nM was found for `CO[C@@H](C)COc1nc(N2C[C@@H]3C[C@H]2CN3)c2cc(C3CC3)c(-c3c(C)c(F)cc4[nH]ncc34)c(OCc3ccc(-c4cn([C@H](C(=O)N5C[C@H](O)C[C@H]5C(=O)N[C@H](C#Cc5cncc6ncsc56)CO)C(C)C)nn4)cc3)c2n1` [Example 118, (2S,4R)-1-((2S)-2-(4-(4-(((4-((1S,4S)-2,5-diazabicyclo[2.2.1]heptan-2-yl)-6-cyclopropyl-7-(6-fluoro-5-methyl-1H-indazol-4-yl)-2-((S)-2-methoxypropoxy)quinazolin-8-yl)oxy)methyl)phenyl)-1H-1,2,3-triazol-1-yl)-3-methylbutanoyl)-4-hydroxy-N—((R)-1-hydroxy-4-(thiazolo[4,5-c]pyridin-7-yl)but-3-yn-2-yl)pyrrolidine-2-carboxamide] in this work.

A DC50 of 10 to 100 nM was found for `Cc1ncsc1-c1ccc([C@H](CO)NC(=O)[C@@H]2C[C@@H](O)CN2C(=O)[C@H](C(C)C)n2cc(-c3ccc(COc4c(-c5c(C)c(F)c(F)c6[nH]ncc56)c(C5CCC5)cc5c(N6C[C@@H]7C[C@H]6CN7)nc(OC6CCOCC6)nc45)cc3)nn2)cc1` [Example 120, (2S,4R)-1-((2S)-2-(4-(4-(((4-((1S,4S)-2,5-diazabicyclo[2.2.1]heptan-2-yl)-6-cyclobutyl-7-(6,7-difluoro-5-methyl-1H-indazol-4-yl)-2-((tetrahydro-2H-pyran-4-yl)oxy)quinazolin-8-yl)oxy)methyl)phenyl)-1H-1,2,3-triazol-1-yl)-3-methylbutanoyl)-4-hydroxy-N—((R)-2-hydroxy-1-(4-(4-methylthiazol-5-yl)phenyl)ethyl)pyrrolidine-2-carboxamide] in this work.

A DC50 of 10 to 100 nM was found for `CO[C@@H](C)COc1nc(N2C[C@@H]3C[C@H]2CN3)c2cc(C3CC3)c(-c3c(C)c(F)cc4[nH]ncc34)c(OCc3ccc(-c4cn([C@H](C(=O)N5C[C@H](O)C[C@H]5C(=O)N[C@H](C#Cc5ccccc5)CO)C(C)C)nn4)cc3)c2n1` [Example 123, (2S,4R)-1-((2S)-2-(4-(4-(((4-((1S,4S)-2,5-diazabicyclo[2.2.1]heptan-2-yl)-6-cyclopropyl-7-(6-fluoro-5-methyl-1H-indazol-4-yl)-2-((S)-2-methoxypropoxy)quinazolin-8-yl)oxy)methyl)phenyl)-1H-1,2,3-triazol-1-yl)-3-methylbutanoyl)-4-hydroxy-N—((R)-1-hydroxy-4-phenylbut-3-yn-2-yl)pyrrolidine-2-carboxamide] in this work.
